Test results: patent US20260200923A1, “HETEROCYCLIC COMPOUNDS TARGETING THE NUDT5 PROTEIN” (Oxford University Innovation Limited, priority 2022, published 2026)
Values belong to the compound of their own block, whether it stands above or below them.

Legend:
NUDT5 = NUDT5 (Homo sapiens, UniProt Q9UKK9); assay: AMP-Glo catalytic assay, NUDT5; assay type: biochemical; conditions: 2 nM NUDT5, ADPr substrate, 20 minutes, mean±SD
Procedure: (§1) To identify alternative X groups, a screening exercise was performed. […] Inhibition activities of the compounds were determined using AMP-Glo system (Promega). The compounds were diluted from 50 μM to 0 μM in a final reaction containing 20 mM Hepes, 100 mM NaCl, 0.5 mM TCEP, 1 mM MgCl2 and 0.1% BSA, pH 7.4. The reactions were performed in 1536 well plate in […] reaction volume with 2 nM of NUDT5 and NUDT14, and […] of ADPr as the substrate. The final DMSO concentration was 0.5% for all reactions. NUDT5 reactions were incubated for 20 minutes while NUDT14 reactions were carried out for 1 hour at room temperature. […] The reactions were further incubated with the 4 μl of Detection solution for 1 hour at room temperature. Luminescence signals were then measured in PHERAstar FSX plate reader. Experiments were done in triplicate sets and data were analysed by GraphPad Prism 9. Data are represented as the mean±SD of three biological experiments: […]

NUDT14 = target: T1, NUDT14 (Homo sapiens, UniProt O95848); assay: AMP-Glo catalytic assay, NUDT14; assay type: biochemical
T1 sequence (O95848 1-222): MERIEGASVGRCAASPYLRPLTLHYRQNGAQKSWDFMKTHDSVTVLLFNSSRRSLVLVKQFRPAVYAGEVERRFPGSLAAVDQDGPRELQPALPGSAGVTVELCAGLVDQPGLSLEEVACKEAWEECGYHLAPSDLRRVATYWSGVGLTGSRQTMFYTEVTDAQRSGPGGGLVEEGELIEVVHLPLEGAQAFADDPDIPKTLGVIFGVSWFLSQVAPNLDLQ
Procedure: as §1

MTHFD1^K56R cells = assay: growth of MTHFD1^K56R cells in adenosine-containing media; assay type: cell-based
Procedure: HAP1 (KBM7-derived, Horizon Discovery, C859), and HAP1 MTHFD1^KO, MTHFD1^K56R, and MTHFD1^K386E cell lines were cultured in Iscove's Modified Dulbecco's Medium (IMDM, Sigma), supplemented with 10% Fetal Bovine Serum (FBS, Sigma) and 1% Penicillin/Streptomycin (P/S, Sigma).
MTHFD1^KO cells in dialyzed FBS media were treated with a single nucleotide or folic acid metabolite for 72 hours. Cells were then stained with Hoechst, imaged, and counted using an Operetta (Perkin Elmer). For the AMPK activator studies, cells were stained with Hoechst, imaged, and counted using an Opera (Perkin Elmer). Similarly, MTHFD1^K56R cells in dialyzed FBS media were treated with adenosine for 72 hours. Cells were then stained with Hoechst, imaged, and counted using an Operetta (Perkin Elmer).

MTHFD1^K386E cells = assay: growth of MTHFD1^K386E cells with adenosine; assay type: cell-based; conditions: synthetase mutant cells
Procedure: HAP1 (KBM7-derived, Horizon Discovery, […]), and HAP1 MTHFD1^KO, MTHFD1^[…], and MTHFD1^[…] cell lines were cultured in Iscove's Modified Dulbecco's Medium (IMDM, Sigma), supplemented with 10% Fetal Bovine Serum (FBS, Sigma) and 1% Penicillin/Streptomycin (P/S, Sigma).

luciferase-tagged NUDT5 = target: T2, luciferase-tagged NUDT5 (Homo sapiens, UniProt Q9UKK9); assay: NanoBRET target engagement assay; assay type: cell-based; conditions: live cells, 2 h
T2 construct: expressed in transfected cells; host or cells: HEK293T
Procedure: For NanoBRET target engagement assay, intracellular TE Nano-Glo substrate/inhibitor (N2161, Promega) was used according to the manufacturer's instruction. In brief, 200,000 HEK293T cells/ml was seeded in a T-75 flask. N-terminal NanoLuciferse NUDT5 was reverse transfected into the cells using Fugene HD transfection reagent (E2312, Promega). After 24 h the transfected HEK293 (200,000 cells/ml) were replated onto a 384-well plate containing compounds. 2.5 nM NU008116a was used as the final tracer concentration. After 2 h, NanoLuc substrate and inhibitor was added into each well and the signals were measured by PHERAstar Microplate Reader.
Compounds were dispensed in the 384-well plates by using Echo Acoustic Dispenser.

HAP-1 cells = assay: 6-thioguanine assay (CellTiter-Glo viability); assay type: cell-based; conditions: 0.2 μg/ml 6-thioguanine, 72 h; HAP1 (and NB4, FIG. 11)
Procedure: NB-4 and HAP1 cells (1000 cells/well in 40 uL) were seeded onto a 384-well plate containing compounds. DMSO or 0.2 μg/ml 6-thioguanine (A4882, Sigma-Aldrich) was added into respective wells. After 72 h incubation cell viability was measured by using CellTiter-Glo 2.0 Assay (G9242, Promega). Compounds in the 384-well plates were prepared by using Echo Acoustic Dispenser.

- IC50 (NUDT5): 375 ± 12 nM
- IC50 (NUDT14): 974 ± 26 nM
SMILES: C=CC(=O)N1CCC[C@@H](n2nc(-c3ccc(Oc4ccccc4)cc3)c3c(N)ncnc32)C1 [Ibrutinib, reference compound]

SMILES: Nc1ncnc2c1ncn2[C@@H]1O[C@H](CO)[C@@H](O)[C@H]1O [adenosine]
- effect of addition on proliferation (MTHFD1^K56R cells; cyclohydrolase mutant cells, 50 μM adenosine): caused a strong antiproliferative response
- effect of addition on growth (MTHFD1^K386E cells): enhanced the growth

SMILES: CN1C(=O)CCC(N2C(=O)c3ccc(N4CCN(CC5CCN(C(=O)N6CCN(c7nc8c(c(=O)n(C)c(=O)n8C)n7Cc7nnc(-c8ccc(Cl)c(Cl)c8)o7)CC6)CC5)CC4)cc3C2=O)C1=O (stereo not shown) [dNUDT5nc, 7-((5-(3,4-dichlorophenyl)-1,3,4-oxadiazol-2-yl)methyl)-1,3-dimethyl-8-(4-(4-((4-(2-(1-methyl-2,6-dioxopiperidin-3-yl)-1,3-dioxoisoindolin-5-yl)piperazin-1-yl)methyl)piperidine-1-carbonyl)piperazin-1-yl)-3,7-dihydro-1H-purine-2,6-dione]
- effect on adenosine toxicity / viability (MTHFD1^K56R cells; adenosine-containing media, 72 h): did not cause any effects
- NUDT5 engagement / recruitment (luciferase-tagged NUDT5): engaged their cognate target NUDT5 in live cells
- rescue of 6-TG toxicity (HAP-1 cells): neither the negative control nor TH5427 gave any significant effects
